According to PubChem BioAssay AID540371 (The Scripps Research Institute Molecular Screening Center, 2011):
Active and inactive are the calls of the source. How the calls were made is not given here.

Target: Melanin-concentrating hormone receptor 1 (Homo sapiens) (UniProt Q99705)
Assay: MCH receptor 1 blockade in cells – cell-based, fluorescence, dose response, set 3, selectivity assay for GPR7 antagonist project, late-stage follow-up (AID 540371)
Details: MCHR1-expressing cells

| IC50 (run 1) | IC50 (run 2) | IC50 (run 3) | SMILES |
| --- | --- | --- | --- |
| > 20 µM (inactive) | > 20 µM (inactive) | > 20 µM (inactive) | COc1ccc(Oc2c(Cl)cnn(C3c4ccccc4-c4ccccc43)c2=O)cc1 |
| > 20 µM (inactive) | > 20 µM (inactive) | > 20 µM (inactive) | CCOC(=O)C(c1cccc2ccccc12)n1ncc(Cl)c(Oc2ccc(OC)cc2)c1=O (stereo not drawn) |
| 7.4 µM | > 20 µM (inactive) | > 20 µM (inactive) | O=c1c(Oc2ccc3c(c2)CCO3)c(Cl)cnn1Cc1cccc2ccccc12 |
| 1.95 µM | 1.72 µM | 2.08 µM | CCc1ccc(Oc2c(Cl)cnn(Cc3cccc4ccccc34)c2=O)cc1 |
| 2.39 µM | 6.02 µM | inactive | CCOc1ccc(Oc2c(Cl)c(Br)nn(Cc3cccc4ccccc34)c2=O)cc1 |
| 5.15 µM | 4.96 µM | 5.67 µM | COc1ccc(Oc2c(Cl)cnn(Cc3cccc4cnccc34)c2=O)cc1 |
| 2.09 µM | 2.25 µM | 2.22 µM | COc1ccc(Oc2c(C#N)cnn(Cc3cccc4ccccc34)c2=O)cc1 |
| 1.43 µM | 1.31 µM | 1.45 µM | C=Cc1nn(Cc2ccccc2C)c(=O)c(Oc2ccc(OC)cc2)c1C=C |
| 8.48 µM | inactive | 8.11 µM | CCOC(=O)C(c1ccccc1)n1ncc(Cl)c(Oc2ccc(OC)cc2)c1=O (stereo not drawn) |
| 2.92 µM | 2.87 µM | 5.49 µM | COc1ccc(Oc2c(Cl)cnn(CC(=O)C(c3ccccc3)c3ccccc3)c2=O)cc1 |
| 2.52 µM | 2.33 µM | 2.71 µM | COc1ccc(Oc2c(Cl)c(C#N)nn(Cc3ccccc3C)c2=O)cc1 |
| 6.19 µM | inactive | inactive | CCOc1ccc(Oc2c(S(C)=O)cnn(Cc3cccc4ccccc34)c2=O)cc1 (stereo not drawn) |
| 4.49 µM | 4.57 µM | 3.34 µM | COc1ccc(Oc2c(Cl)cnn(Cc3ccccc3C(F)(F)F)c2=O)cc1 |
| inactive | inactive | inactive | COc1ccc(Sc2c(Cl)cnn(Cc3cccc4ccccc34)c2=O)cc1 |
| 3.06 µM | 7.68 µM | 5.64 µM | COc1ccc(Oc2c(Cl)cnn(Cc3ccccc3C)c2=O)cc1 |
| 1.5 µM | inactive | 6.46 µM | COc1ccc(Oc2c(Cl)cnn(Cc3cc(C)cc(C)c3)c2=O)cc1 |

| IC50 (run 1) | IC50 (run 2) | IC50 (run 3) | SMILES |
| --- | --- | --- | --- |
| 1.12 µM | 2.24 µM | 4.59 µM | COc1ccc(Oc2c(Cl)cnn(Cc3ccccc3-c3ccccc3)c2=O)cc1 |
| 1.59 µM | 5.22 µM | 6.71 µM | CCOc1ccc(Oc2c(Cl)cnn(Cc3cccc4ccccc34)c2=O)cc1 |
| > 20 µM (inactive) | > 20 µM (inactive) | inactive | COc1ccc(Oc2c(Cl)cnn(Cc3c4ccccc4cc4ccccc34)c2=O)cc1 |
| 0.988 µM | 1.7 µM | 1.61 µM | COc1ccc(Oc2c(Cl)cnn(Cc3cccc4ccccc34)c2=O)cc1 |
| > 20 µM (inactive) | > 20 µM (inactive) | > 20 µM (inactive) | CCCOc1ccc(Oc2c(Cl)cnn(C3c4ccccc4-c4ccccc43)c2=O)cc1 |
| 8.51 µM | inactive | inactive | COc1ccc(Oc2c(Cl)cnn(Cc3ccccc3)c2=O)cc1 |
| inactive | inactive | > 20 µM (inactive) | COc1ccc(Nc2c(Cl)cnn(Cc3cccc4ccccc34)c2=O)cc1 |
| 0.77 µM | 0.815 µM | 0.836 µM | COc1ccc(Oc2c(Cl)cnn(Cc3c(C)ccc4ccccc34)c2=O)cc1 |
| inactive | > 20 µM (inactive) | 7.22 µM | COc1ccc(Oc2c(Cl)cnn(C(c3ccccc3)c3ccccc3)c2=O)cc1 |
| 4.01 µM | inactive | inactive | COc1ccc(Oc2c(Cl)cnn(Cc3ccc4ccccc4c3)c2=O)cc1 |
| inactive | inactive | inactive | COc1ccc(Oc2c(Cl)cnn(Cc3c(F)cccc3F)c2=O)cc1 |
| inactive | > 20 µM (inactive) | > 20 µM (inactive) | COc1ccc(Oc2c(Cl)cnn(C(C(=O)c3ccccc3)c3ccccc3)c2=O)cc1 (stereo not drawn) |
| inactive | > 20 µM (inactive) | > 20 µM (inactive) | CCCOc1ccc(Oc2c(Cl)cnn(Cc3cccc4ccccc34)c2=O)cc1 |
| > 20 µM (inactive) | > 20 µM (inactive) | > 20 µM (inactive) | CCOc1ccc(Oc2c(Cl)cnn(C3c4ccccc4-c4ccccc43)c2=O)cc1 |
| 0.892 µM | 2.14 µM | 1.66 µM | COc1ccc(Oc2c(Br)cnn(Cc3cccc4ccccc34)c2=O)cc1 |
